Measurements: patent US20240376100A1 (Redona Therapeutics, Inc., priority 2021, published 2024)

Biological target: PAPD5 enzyme (Homo sapiens, UniProt Q8NDF8)
Assay: PAPD5 assay (AMP incorporation onto 3'-terminus of RNA substrate, fluorescence quench)
Assay type: biochemical
Settings: PAPD5 protein 0.3 nM, ATP 50 μM, 30 minutes preincubation, room temperature; read-out: Potency PAPD5 IC50
Description: The purpose of the PAPD5 assay is to determine compound potency against PAPD5 enzyme through the measurement of IC50. Compound inhibition is measured as a function of AMP incorporation onto the 3′-terminus of an RNA substrate in the presence of active PAPD5, ATP, and inhibitor. The PAPD5 assay was done in a black, non-binding, 384 well plate (Corning #3575). All steps were performed at room temperature. For a typical assay, a 40 ul aliquot of assay buffer (50 mM HEPES pH 7.3, 20 mM KCl, 10 mM MgCl2, 10 mMM DTT, 0.01% Triton X-100, 40 U/ml RNAsin (Promega)) containing PAPD5 protein (final 10 concentration: 0.3 nM) and ATP (final concentration 50 μM) was added to each well. Next, 1 ul of compound in 100% DMSO is transferred from a compound dilution plate in which the compound is serially diluted. The plate was placed on a plate shaker for 30 seconds to produce mixing, then incubated for 30 minutes. Next, 10 ul of a 5× mix of RNA substrate (5′-fluorescein-AUAGAG-3′ (IDT)) and a DNA oligonucleotide that is complementary to the AMP modified RNA product (5′-TCTCTATT-3′-TAMRA, wherein the first two nucleotides are locked nucleic acids (IDT)) was added (final concentrations: 5 nM and 20 nM, respectively). The plate was placed on a plate shaker for 30 seconds to produce mixing then immediately placed in a Biotek Cytation 5 plate reader, and the time-dependent decrease in fluorescein fluorescence resulting from annealing of the TAMRA labeled quenching probe was recorded, using the kinetics mode of the reader (typical run time is 90 minutes). Reaction rates were obtained using linear fits to the early portion of progress curves. IC50 values were calculated using a four-parameter fit with 100% enzyme activity determined from the DMSO control and 0% activity from control samples lacking UTP.
“+” represents an IC50 value that is greater than 50 PM; “++” represents an IC50 value that is greater than 10 μM and equal to or less than 50 μM; “+++” represents an IC50 value that is greater than 1 μM and equal to or less than 10 μM; and “++++” represents an IC50 value that is equal to or less than 1 μM.

Sequence of PAPD5 enzyme (Q8NDF8 whole entry): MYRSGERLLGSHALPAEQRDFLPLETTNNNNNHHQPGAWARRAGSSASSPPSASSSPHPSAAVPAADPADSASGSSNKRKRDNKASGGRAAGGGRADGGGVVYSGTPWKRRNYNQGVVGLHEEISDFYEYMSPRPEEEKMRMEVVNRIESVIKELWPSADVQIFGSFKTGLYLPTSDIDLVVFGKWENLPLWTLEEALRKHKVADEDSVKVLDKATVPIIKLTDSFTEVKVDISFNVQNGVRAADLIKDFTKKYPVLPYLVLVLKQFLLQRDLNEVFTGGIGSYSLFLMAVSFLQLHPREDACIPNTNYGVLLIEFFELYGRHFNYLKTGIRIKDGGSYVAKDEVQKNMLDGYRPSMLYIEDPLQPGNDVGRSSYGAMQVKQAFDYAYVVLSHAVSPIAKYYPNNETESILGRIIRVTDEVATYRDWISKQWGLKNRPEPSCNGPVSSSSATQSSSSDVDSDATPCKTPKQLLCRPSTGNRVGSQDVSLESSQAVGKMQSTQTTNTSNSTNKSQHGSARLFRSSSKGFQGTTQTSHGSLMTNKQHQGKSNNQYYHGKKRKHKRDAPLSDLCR

| Structure (SMILES) | IC50 |
| --- | --- |
| O=C(O)c1cn(-c2ccc(O)cc2F)c2cc(N3Cc4cccnc4C3)c(F)cc2c1=O [Example 29, 7-(5,7-dihydro-6H-pyrrolo[3,4-b]pyridin-6-yl)-6-fluoro-1-(2-fluoro-4-hydroxyphenyl)-4-oxo-1,4-dihydroquinoline-3-carboxylic acid] | ≤ 1000 nM |
| O=C(O)c1cn(-c2ccc(O)cc2F)c2cc(N3Cc4ccccc4C3)c(Cl)cc2c1=O [Example 30, 6-chloro-1-(2-fluoro-4-hydroxyphenyl)-7-(isoindolin-2-yl)-4-oxo-1,4-dihydroquinoline-3-carboxylic acid] | ≤ 1000 nM |
| O=C(O)c1cn(-c2ccc(O)c(F)c2)c2cc(N3Cc4ccccc4C3)c(F)cc2c1=O [Example 31, 6-fluoro-1-(3-fluoro-4-hydroxyphenyl)-7-(isoindolin-2-yl)-4-oxo-1,4-dihydroquinoline-3-carboxylic acid] | ≤ 1000 nM |
| O=C(O)c1cn(-c2ccc(O)cc2F)c2cc(N3Cc4ccccc4C3)c(F)cc2c1=O [Example 32, 6-fluoro-1-(2-fluoro-4-hydroxyphenyl)-7-(isoindolin-2-yl)-4-oxo-1,4-dihydroquinoline-3-carboxylic acid] | ≤ 1000 nM |
| O=C(O)c1cn(CC2CCC2)c2cc(N3Cc4cccnc4C3)c(Cl)cc2c1=O [Example 33, 6-chloro-1-(cyclobutylmethyl)-7-(5,7-dihydro-6H-pyrrolo[3,4-b]pyridin-6-yl)-4-oxo-1,4-dihydroquinoline-3-carboxylic acid] | ≤ 1000 nM |
| CC(C)Cn1cc(C(=O)O)c(=O)c2cc(Cl)c(N3Cc4cccnc4C3)nc21 [Example 34, 6-chloro-7-(5,7-dihydro-6H-pyrrolo[3,4-b]pyridin-6-yl)-1-isobutyl-4-oxo-1,4-dihydro-1,8-naphthyridine-3-carboxylic acid] | ≤ 1000 nM |
| CN(C)C1CN(c2ccc(-n3cc(C(=O)O)c(=O)c4cc(C#N)c(N5Cc6cccnc6C5)cc43)cn2)C1 [Example 36, 6-cyano-7-(5,7-dihydro-6H-pyrrolo[3,4-b]pyridin-6-yl)-1-(6-(3-(dimethylamino)azetidin-1-yl)pyridin-3-yl)-4-oxo-1,4-dihydroquinoline-3-carboxylic acid] | ≤ 1000 nM |
| N#Cc1cc2c(=O)c(C(=O)O)cn(-c3ccc(O)c(F)c3)c2cc1N1Cc2cccnc2C1 [Example 37, 6-cyano-7-(5,7-dihydro-6H-pyrrolo[3,4-b]pyridin-6-yl)-1-(3-fluoro-4-hydroxyphenyl)-4-oxo-1,4-dihydroquinoline-3-carboxylic acid] | ≤ 1000 nM |
| N#Cc1cc2c(=O)c(C(=O)O)cn(-c3ccc(O)cc3F)c2cc1N1Cc2cccnc2C1 [Example 38, 6-cyano-7-(5,7-dihydro-6H-pyrrolo[3,4-b]pyridin-6-yl)-1-(2-fluoro-4-hydroxyphenyl)-4-oxo-1,4-dihydroquinoline-3-carboxylic acid] | ≤ 1000 nM |
| COc1ccc(-c2ccn(-c3cc4c(cc3F)c(=O)c(C(=O)O)cn4-c3ccc(O)cc3F)n2)cc1 [Example 39, 6-fluoro-1-(2-fluoro-4-hydroxyphenyl)-7-(3-(4-methoxyphenyl)-1H-pyrazol-1-yl)-4-oxo-1,4-dihydroquinoline-3-carboxylic acid] | ≤ 1000 nM |
| O=C(O)c1cn(Cc2ccccc2)c2nc(N3Cc4cccnc4C3)c(Cl)cc2c1=O [Example 40, 1-benzyl-6-chloro-7-(5,7-dihydro-6H-pyrrolo[3,4-b]pyridin-6-yl)-4-oxo-1,4-dihydro-1,8-naphthyridine-3-carboxylic acid] | ≤ 1000 nM |
| COc1ccccc1Cn1cc(C(=O)O)c(=O)c2cc(Cl)c(N3Cc4cccnc4C3)nc21 [Example 41, 6-chloro-7-(5,7-dihydro-6H-pyrrolo[3,4-b]pyridin-6-yl)-1-(2-methoxybenzyl)-4-oxo-1,4-dihydro-1,8-naphthyridine-3-carboxylic acid] | ≤ 1000 nM |
| COc1cccc(Cn2cc(C(=O)O)c(=O)c3cc(Cl)c(N4Cc5cccnc5C4)nc32)c1 [Example 42, 6-chloro-7-(5,7-dihydro-6H-pyrrolo[3,4-b]pyridin-6-yl)-1-(3-methoxybenzyl)-4-oxo-1,4-dihydro-1,8-naphthyridine-3-carboxylic acid] | ≤ 1000 nM |
| CC(c1ccccc1)n1cc(C(=O)O)c(=O)c2cc(Cl)c(N3Cc4cccnc4C3)nc21 (stereo not drawn) [Example 43, 6-chloro-7-(5,7-dihydro-6H-pyrrolo[3,4-b]pyridin-6-yl)-4-oxo-1-(1-phenylethyl)-1,4-dihydro-1,8-naphthyridine-3-carboxylic acid] | ≤ 1000 nM |
| COc1ccc(Cn2cc(C(=O)O)c(=O)c3cc(Cl)c(N4Cc5cccnc5C4)nc32)cc1 [Example 44, 6-chloro-7-(5,7-dihydro-6H-pyrrolo[3,4-b]pyridin-6-yl)-1-(4-methoxybenzyl)-4-oxo-1,4-dihydro-1,8-naphthyridine-3-carboxylic acid] | ≤ 1000 nM |
| N#Cc1cc2c(=O)c(C(=O)O)cn(-c3cnccn3)c2nc1N1Cc2cccnc2C1 [Example 45, 6-cyano-7-(5,7-dihydro-6H-pyrrolo[3,4-b]pyridin-6-yl)-4-oxo-1-(pyrazin-2-yl)-1,4-dihydro-1,8-naphthyridine-3-carboxylic acid] | ≤ 1000 nM |
| Cc1nc(NC(=O)OC(C)(C)C)ccc1-n1cc(C(=O)O)c(=O)c2cc(Cl)c(N3Cc4cccnc4C3)cc21 [Example 46, 1-(6-((tert-butoxycarbonyl)amino)-2-methylpyridin-3-yl)-6-chloro-7-(5,7-dihydro-6H-pyrrolo[3,4-b]pyridin-6-yl)-4-oxo-1,4-dihydroquinoline-3-carboxylic acid] | ≤ 1000 nM |
| N#Cc1cc2c(=O)c(C(=O)O)cn(-c3cnccn3)c2cc1N1Cc2cccnc2C1 [Example 47, 6-cyano-7-(5,7-dihydro-6H-pyrrolo[3,4-b]pyridin-6-yl)-4-oxo-1-(pyrazin-2-yl)-1,4-dihydroquinoline-3-carboxylic acid] | ≤ 1000 nM |
| N#Cc1cc2c(=O)c(C(=O)O)cn(-c3ccc(N)nc3)c2cc1N1Cc2cccnc2C1 [Example 48, 1-(6-aminopyridin-3-yl)-6-cyano-7-(5,7-dihydro-6H-pyrrolo[3,4-b]pyridin-6-yl)-4-oxo-1,4-dihydroquinoline-3-carboxylic acid] | ≤ 1000 nM |
| N#Cc1cc2c(=O)c(C(=O)O)cn(-c3ccc(N4CCC4)nc3)c2cc1N1Cc2cccnc2C1 [Example 49, 1-(6-(azetidin-1-yl)pyridin-3-yl)-6-cyano-7-(5,7-dihydro-6H-pyrrolo-[3,4-b]pyridin-6-yl)-4-oxo-1,4-dihydroquinoline-3-carboxylic acid] | ≤ 1000 nM |
| COCCNc1ccc(-n2cc(C(=O)O)c(=O)c3cc(C#N)c(N4Cc5cccnc5C4)cc32)cn1 [Example 50, 6-cyano-7-(5,7-dihydro-6H-pyrrolo[3,4-b]pyridin-6-yl)-1-(6-((2-methoxyethyl)amino)pyridin-3-yl)-4-oxo-1,4-dihydroquinoline-3-carboxylic acid] | ≤ 1000 nM |
| Nc1ccc(-n2cc(C(=O)O)c(=O)c3cc(Cl)c(N4Cc5cccnc5C4)nc32)cn1 [Example 51, 1-(6-aminopyridin-3-yl)-6-chloro-7-(5,7-dihydro-6H-pyrrolo[3,4-b]pyridin-6-yl)-4-oxo-1,4-dihydro-1,8-naphthyridine-3-carboxylic acid] | ≤ 1000 nM |
| Nc1ccc(-n2cc(C(=O)O)c(=O)c3cc(Cl)c(N4Cc5cccnc5C4)cc32)cn1 [Example 52, 1-(6-aminopyridin-3-yl)-6-chloro-7-(5,7-dihydro-6H-pyrrolo[3,4-b]pyridin-6-yl)-4-oxo-1,4-dihydroquinoline-3-carboxylic acid] | ≤ 1000 nM |
| N#Cc1cc2c(=O)c(C(=O)O)cn(-c3cccnc3)c2cc1N1Cc2cccc(F)c2C1 [Example 53, 6-cyano-7-(4-fluoroisoindolin-2-yl)-4-oxo-1-(pyridin-3-yl)-1,4-dihydroquinoline-3-carboxylic acid] | ≤ 1000 nM |
| COc1cnc(-n2cc(C(=O)O)c(=O)c3cc(C#N)c(N4Cc5cccnc5C4)cc32)cn1 [Example 54, 6-cyano-7-(5,7-dihydro-6H-pyrrolo[3,4-b]pyridin-6-yl)-1-(5-methoxypyrazin-2-yl)-4-oxo-1,4-dihydro quinoline-3-carboxylic acid] | ≤ 1000 nM |
| COc1ccc(-n2cc(C(=O)O)c(=O)c3cc(C#N)c(N4Cc5cccnc5C4)cc32)cn1 [Example 55, 6-cyano-7-(5,7-dihydro-6H-pyrrolo[3,4-b]pyridin-6-yl)-1-(6-methoxypyridin-3-yl)-4-oxo-1,4-dihydroquinoline-3-carboxylic acid] | ≤ 1000 nM |
| N#Cc1cc2c(=O)c(C(=O)O)cn(-c3ccc(O)nc3)c2cc1N1Cc2cccnc2C1 [Example 56, 6-cyano-7-(5,7-dihydro-6H-pyrrolo[3,4-b]pyridin-6-yl)-1-(6-hydroxypyridin-3-yl)-4-oxo-1,4-dihydroquinoline-3-carboxylic acid] | ≤ 1000 nM |
